Laboratory results taken from patent US20180360953A1 (priority 2015, published 2018).

Test system: PA-specific Ab responses
Set-up: species or system mice
Conditions: mouse, in vivo, ip

Cc1c(-c2ccnn2C)cc(C(=O)NCc2ccc(S(C)(=O)=O)cn2)c(=O)n1-c1cccc(C(F)(F)F)c1 [Alvelestat, alvelestat]
High affinity PA-specific serum IgG1 and IgA Ab responses: promotes high affinity Abs
